Experimental data from ChEMBL document CHEMBL1201862, “PubChem BioAssay data set” (2004).
Active and inactive are the calls of the source.

Columns and labels:
[1] = target: Large T antigen (Simian virus 40, UniProt P03070); assay type: functional, Betapolyomavirus macacae;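 note: Confirmatory-stage PubChem screen for compounds that inhibit SV40 T antigen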
[2] = target: T1, ORF 73 (Human herpesvirus 8, UniProt O40947); assay: KSHV LANA DNA-binding disruption – biochemical, fluorescence polarization, cherry-picked samples, dose response (AID 504725); set-up: species or system Human gammaherpesvirus 8;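 note: fluorescence polarization of a labeled DNA duplex reporting LANA DNA binding; potency is for inhibitors that block LANA binding to the DNA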
T1 sequence (O40947 whole entry): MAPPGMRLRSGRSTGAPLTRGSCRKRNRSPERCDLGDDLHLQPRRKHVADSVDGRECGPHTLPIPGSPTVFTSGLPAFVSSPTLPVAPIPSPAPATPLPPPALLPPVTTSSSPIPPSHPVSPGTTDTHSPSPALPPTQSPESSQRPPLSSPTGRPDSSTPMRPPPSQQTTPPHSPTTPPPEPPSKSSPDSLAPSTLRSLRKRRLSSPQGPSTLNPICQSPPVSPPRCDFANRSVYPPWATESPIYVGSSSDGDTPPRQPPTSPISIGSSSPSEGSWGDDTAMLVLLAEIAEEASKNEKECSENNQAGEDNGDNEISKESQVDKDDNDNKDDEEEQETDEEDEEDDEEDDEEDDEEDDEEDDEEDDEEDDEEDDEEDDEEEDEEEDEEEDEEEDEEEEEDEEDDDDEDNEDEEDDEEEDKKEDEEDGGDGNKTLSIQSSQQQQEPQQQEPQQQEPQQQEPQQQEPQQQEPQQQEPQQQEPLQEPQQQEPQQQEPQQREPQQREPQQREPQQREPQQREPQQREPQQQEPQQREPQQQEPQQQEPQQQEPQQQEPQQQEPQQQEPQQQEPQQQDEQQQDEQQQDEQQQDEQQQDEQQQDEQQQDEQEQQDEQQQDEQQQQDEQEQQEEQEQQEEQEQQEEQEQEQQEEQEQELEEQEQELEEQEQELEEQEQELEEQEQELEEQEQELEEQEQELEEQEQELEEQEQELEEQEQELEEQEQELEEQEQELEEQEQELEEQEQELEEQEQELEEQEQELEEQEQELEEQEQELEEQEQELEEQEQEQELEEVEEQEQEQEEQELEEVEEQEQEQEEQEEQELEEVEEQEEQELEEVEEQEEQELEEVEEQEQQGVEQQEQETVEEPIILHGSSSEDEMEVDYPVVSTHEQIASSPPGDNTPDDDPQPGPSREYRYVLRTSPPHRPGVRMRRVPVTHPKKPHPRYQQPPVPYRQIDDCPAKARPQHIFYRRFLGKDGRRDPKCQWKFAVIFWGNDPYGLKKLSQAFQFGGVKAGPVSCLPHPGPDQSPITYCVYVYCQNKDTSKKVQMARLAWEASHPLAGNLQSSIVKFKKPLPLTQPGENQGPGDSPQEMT

[3] = system: CHO; assay: CHO cell viability loss, potency – luminescence, cytotoxicity control for TLR9-MyD88 binding inhibitor project, dose response (AID 588339); assay type: functional, cell-based, hamster; conditions: Cricetulus griseus;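 note: CHO cells stably coexpressing TLR9 and MyD88 fusions from primary screen; compound exposure lasted 48 hours before viability readout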
[4] = target: UDP-galactopyranose mutase (Mycobacterium tuberculosis, UniProt P9WIQ1); assay: Inhibitors of Mycobacterium tuberculosis UDP-galactopyranose mutase (UGM) enzyme Measured in Biochemical System Using Plate Reader - 2105-02_Inhibitor_Dose_CherryPick_Activity. [Related pubchem assays (depositor defined):AID504439]
Chain of UDP-galactopyranose mutase (P9WIQ1 whole entry): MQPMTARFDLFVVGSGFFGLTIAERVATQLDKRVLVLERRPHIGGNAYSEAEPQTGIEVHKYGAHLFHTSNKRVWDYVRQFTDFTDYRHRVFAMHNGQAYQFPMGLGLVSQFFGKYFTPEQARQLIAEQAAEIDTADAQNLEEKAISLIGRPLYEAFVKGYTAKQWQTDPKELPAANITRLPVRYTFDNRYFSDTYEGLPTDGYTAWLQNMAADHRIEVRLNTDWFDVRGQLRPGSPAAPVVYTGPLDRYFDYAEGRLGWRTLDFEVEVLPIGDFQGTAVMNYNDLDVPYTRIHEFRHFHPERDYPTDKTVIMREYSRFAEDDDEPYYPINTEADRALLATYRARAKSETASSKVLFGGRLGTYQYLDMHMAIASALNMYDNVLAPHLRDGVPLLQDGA

[5] = target: T2, Insulin-degrading enzyme (Homo sapiens, UniProt P14735); assay: recombinant IDE activation, cell-free – biochemical, fluorescence polarization, counter-screen for IDE activator project, dose response (AID 588681)
T2 sequence (P14735 whole entry): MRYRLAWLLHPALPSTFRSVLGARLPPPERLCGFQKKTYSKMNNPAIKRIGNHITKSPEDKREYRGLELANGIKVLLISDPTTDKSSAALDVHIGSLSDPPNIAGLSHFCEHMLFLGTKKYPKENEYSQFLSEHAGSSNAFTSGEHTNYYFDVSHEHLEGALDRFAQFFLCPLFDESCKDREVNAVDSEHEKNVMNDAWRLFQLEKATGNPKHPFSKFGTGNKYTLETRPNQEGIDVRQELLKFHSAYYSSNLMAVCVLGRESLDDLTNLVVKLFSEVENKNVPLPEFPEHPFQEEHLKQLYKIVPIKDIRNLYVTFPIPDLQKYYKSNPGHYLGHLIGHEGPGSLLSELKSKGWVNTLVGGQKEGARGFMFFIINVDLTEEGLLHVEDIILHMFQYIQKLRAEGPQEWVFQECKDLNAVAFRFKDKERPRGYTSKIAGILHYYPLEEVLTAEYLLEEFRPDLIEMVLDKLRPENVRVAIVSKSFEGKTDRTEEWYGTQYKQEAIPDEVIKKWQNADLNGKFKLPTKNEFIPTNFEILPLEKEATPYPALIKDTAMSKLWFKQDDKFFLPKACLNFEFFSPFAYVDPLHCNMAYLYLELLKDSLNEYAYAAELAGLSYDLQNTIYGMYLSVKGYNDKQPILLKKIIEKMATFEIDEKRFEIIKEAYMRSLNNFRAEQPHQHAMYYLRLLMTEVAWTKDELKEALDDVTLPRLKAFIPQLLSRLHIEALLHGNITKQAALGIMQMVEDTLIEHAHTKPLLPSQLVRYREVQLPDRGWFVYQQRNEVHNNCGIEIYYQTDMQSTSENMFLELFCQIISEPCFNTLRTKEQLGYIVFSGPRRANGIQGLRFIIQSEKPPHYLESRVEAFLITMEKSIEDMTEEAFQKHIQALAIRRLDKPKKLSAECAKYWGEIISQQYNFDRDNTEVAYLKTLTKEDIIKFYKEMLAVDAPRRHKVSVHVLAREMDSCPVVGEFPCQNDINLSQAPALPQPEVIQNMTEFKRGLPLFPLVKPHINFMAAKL

[6] = target: Keap1/Nrf2 (Homo sapiens, UniProt Q14145); assay: disruptors of Keap1 binding to Nrf2 peptide – biochemical, fluorescence polarization, cherry-picked samples, dose response (AID 588683)
Chain of Keap1/Nrf2 (Q16236 whole entry): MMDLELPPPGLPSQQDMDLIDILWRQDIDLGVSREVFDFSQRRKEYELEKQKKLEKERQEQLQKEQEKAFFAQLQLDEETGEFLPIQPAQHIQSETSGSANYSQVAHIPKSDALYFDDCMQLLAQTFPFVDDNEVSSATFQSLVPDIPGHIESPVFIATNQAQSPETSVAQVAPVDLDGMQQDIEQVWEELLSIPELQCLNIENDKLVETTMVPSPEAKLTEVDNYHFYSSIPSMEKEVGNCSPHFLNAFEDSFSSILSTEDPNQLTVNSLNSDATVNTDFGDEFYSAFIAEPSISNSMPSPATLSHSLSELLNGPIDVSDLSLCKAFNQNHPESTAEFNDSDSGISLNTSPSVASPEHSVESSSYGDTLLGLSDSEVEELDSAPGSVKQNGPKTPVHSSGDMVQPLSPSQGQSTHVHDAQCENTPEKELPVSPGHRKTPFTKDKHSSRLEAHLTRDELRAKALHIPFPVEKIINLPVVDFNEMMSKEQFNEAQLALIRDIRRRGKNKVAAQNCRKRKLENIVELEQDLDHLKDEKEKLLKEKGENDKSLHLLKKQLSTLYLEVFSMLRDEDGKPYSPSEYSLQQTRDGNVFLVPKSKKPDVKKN
Chain of Keap1/Nrf2 (Q14145 whole entry): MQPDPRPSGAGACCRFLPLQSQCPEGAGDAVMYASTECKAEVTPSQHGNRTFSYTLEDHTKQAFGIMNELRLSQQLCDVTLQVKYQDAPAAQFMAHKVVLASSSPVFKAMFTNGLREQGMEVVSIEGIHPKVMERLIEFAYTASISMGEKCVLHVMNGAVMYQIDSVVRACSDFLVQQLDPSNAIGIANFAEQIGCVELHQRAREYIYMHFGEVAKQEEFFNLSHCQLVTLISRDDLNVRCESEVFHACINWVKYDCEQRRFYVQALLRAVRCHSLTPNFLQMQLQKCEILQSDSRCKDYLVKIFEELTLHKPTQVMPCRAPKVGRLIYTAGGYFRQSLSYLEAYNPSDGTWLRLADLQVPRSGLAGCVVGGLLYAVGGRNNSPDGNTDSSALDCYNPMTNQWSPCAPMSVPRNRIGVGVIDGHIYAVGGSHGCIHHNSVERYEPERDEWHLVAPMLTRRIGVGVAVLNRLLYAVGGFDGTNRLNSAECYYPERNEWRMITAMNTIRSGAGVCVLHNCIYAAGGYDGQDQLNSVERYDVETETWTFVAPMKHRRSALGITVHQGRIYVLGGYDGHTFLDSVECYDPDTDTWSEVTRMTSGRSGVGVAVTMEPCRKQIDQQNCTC

[7] = target: Beta Lactamase (Pseudomonas aeruginosa, UniProt Q932Y6); assay: BLA reporter interference, concentration series – BLA reporter cells, FRET fluorescence, artefact control for TLR9-MyD88 binding inhibitor project, dose response (AID 588341); assay type: cell-based;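 note: cell based assay in CHO-K1 cells stably expressing beta-lactamase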
Chain of Beta Lactamase (Q932Y6 whole entry): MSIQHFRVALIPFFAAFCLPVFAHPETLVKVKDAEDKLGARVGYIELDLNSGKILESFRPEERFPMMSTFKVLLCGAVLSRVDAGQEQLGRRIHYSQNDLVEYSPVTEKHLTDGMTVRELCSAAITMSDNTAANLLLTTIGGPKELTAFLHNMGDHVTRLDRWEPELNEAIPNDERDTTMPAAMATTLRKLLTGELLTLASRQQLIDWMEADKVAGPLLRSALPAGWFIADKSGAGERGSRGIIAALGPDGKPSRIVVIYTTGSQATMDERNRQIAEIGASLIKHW

[8] = target: T2, Insulin-degrading enzyme; assay: cellular IDE activation of Abeta substrate cleavage – fluorescence polarization, HEK cells, dose response (AID 588439); assay type: functional, cell-based
[9] = system: HEK293; assay: membrane integrity loss in HEK cells – cell-based, fluorescence, cytotoxicity control for IDE activator project, dose response (AID 588440); assay type: functional; conditions: Homo sapiens;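 note: cytotoxicity by LDH release measuring loss of membrane integrity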
[10] = target: Dual specificity tyrosine-phosphorylation-regulated kinase 1A (Rattus norvegicus, UniProt Q63470); assay type: biochemical, Homo sapiens
[11] = system: HEK293; assay: optical interference in Abeta FP readout, dose response, artefact control for IDE activator project, biochemical, fluorescence polarization (AID 588442); assay type: functional, cell-based; conditions: Homo sapiens
[12] = target: T3, Rac GTPase-activating protein 1 (Homo sapiens, UniProt Q9H0H5); assay: blockers of MgcRacGAP-driven Rac1 GTP hydrolysis – biochemical, ADP Hunter fluorescence, primary and confirmatory, confirmation (AID 624330); assay type: functional
T3 sequence (Q9H0H5 whole entry): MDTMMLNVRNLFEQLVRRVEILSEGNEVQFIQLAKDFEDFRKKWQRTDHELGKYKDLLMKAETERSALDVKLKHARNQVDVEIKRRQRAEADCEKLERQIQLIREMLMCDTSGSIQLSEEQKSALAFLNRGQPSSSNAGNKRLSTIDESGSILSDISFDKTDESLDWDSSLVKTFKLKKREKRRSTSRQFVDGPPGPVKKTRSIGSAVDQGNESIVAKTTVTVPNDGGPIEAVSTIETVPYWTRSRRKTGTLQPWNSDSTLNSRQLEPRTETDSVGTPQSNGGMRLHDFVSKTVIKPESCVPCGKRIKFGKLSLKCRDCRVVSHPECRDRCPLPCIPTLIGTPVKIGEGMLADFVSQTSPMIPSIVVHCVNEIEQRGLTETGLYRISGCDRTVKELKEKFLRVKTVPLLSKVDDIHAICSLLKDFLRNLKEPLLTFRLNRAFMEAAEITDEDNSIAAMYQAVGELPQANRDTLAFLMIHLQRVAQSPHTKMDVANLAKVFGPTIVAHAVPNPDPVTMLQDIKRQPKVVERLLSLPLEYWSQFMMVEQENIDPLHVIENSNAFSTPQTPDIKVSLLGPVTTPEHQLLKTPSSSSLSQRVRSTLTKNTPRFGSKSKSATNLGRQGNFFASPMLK

Chain of Large T antigen (P03070 whole entry): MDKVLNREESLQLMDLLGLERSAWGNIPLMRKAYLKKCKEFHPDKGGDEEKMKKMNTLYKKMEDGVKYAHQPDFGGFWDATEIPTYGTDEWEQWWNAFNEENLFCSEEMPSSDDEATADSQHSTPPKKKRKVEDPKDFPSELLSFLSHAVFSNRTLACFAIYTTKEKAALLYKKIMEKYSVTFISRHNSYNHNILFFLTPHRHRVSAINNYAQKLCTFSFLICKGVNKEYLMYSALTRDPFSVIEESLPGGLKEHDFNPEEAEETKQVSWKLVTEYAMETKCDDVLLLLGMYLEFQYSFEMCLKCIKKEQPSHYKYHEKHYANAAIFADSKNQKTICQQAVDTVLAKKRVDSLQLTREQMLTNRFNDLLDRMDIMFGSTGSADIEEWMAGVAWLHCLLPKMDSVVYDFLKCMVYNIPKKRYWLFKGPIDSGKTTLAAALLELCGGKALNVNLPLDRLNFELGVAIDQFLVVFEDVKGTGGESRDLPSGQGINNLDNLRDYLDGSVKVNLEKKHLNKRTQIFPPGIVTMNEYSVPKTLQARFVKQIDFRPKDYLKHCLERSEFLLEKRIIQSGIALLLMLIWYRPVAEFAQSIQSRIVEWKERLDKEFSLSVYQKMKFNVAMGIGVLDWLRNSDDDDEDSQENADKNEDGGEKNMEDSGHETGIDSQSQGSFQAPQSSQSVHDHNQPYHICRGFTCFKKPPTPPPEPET

Structure (SMILES): CC1=NCCc2c1[nH]c1cc(O)ccc21
- IC50 [1]: 8.18 µM (active)
- AC50 [2]: 1.76 µM (active)
- IC50 [3]: > 49.8 µM (inactive)
- AC50 [4]: 5.89 µM (active)
- EC50 [5]: > 54.6 µM (inactive)
- AC50 [6]: 4.36 µM (active)
- IC50 [7]: 7.96 µM (active)
- EC50 [8]: > 54.6 µM (inactive)
- IC50 [9]: > 89.1 µM (inactive)
- AC50 [10]: 3.13 µM (active)
- EC50 [11]: > 54.6 µM (inactive)
- IC50 [12]: 8.73 µM (active)
